# Test results taken from patent US10047081B2, “BACE1 inhibitors” (Hoffmann-La Roche Inc., priority 2015, dated 2018).
# How the values were obtained:
# [1] = molecular target: T1, recombinant human cathepsin E (Homo sapiens, UniProt P14091); assay: Cathepsin E fluorescent substrate kinetic assay; type: biochemical; settings: pH 4.5, substrate MR121-CKLVFFAEDW
# T1 construct: purchased R&D Systems
# T1 sequence (P14091 54-396): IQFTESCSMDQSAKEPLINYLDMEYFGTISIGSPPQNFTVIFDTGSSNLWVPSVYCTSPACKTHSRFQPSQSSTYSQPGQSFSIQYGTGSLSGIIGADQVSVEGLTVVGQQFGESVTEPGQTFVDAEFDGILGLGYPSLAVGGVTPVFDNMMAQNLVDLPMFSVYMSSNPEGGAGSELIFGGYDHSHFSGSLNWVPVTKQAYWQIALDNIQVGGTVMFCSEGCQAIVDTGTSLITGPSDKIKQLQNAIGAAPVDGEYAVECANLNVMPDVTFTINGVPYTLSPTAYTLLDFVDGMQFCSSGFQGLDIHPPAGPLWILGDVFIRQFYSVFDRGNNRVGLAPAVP
# Text: (§1) Cathepsin D and Cathepsin E Fluorescent Substrate Kinetic Assays
# (§2) The MR121 fluorescence assays described below are based on the fact that MR121 forms a non-fluorescent ground state complex with tryptophan. In solution this formation occurs at millimolar concentrations of tryptophan. The mechanism can be used to design a generic biochemical assay for proteases. A substrate peptide is labeled at the N-terminus with tryptophan and at the C-terminus with the fluorophore MR121 (for cathepsin D the 10 amino acid peptide WTSVLMAAPC-MR121 was used; for cathepsin E, MR121-CKLVFFAEDW was used). In absence of protease activity, the substrates remain intact and the MR121 fluorescence is reduced by the high local Trp-concentration. If the substrates are cleaved by the enzymes the MR121 fluorescence is recovered.
# (§3) The fluorescent substrate cathepsin D and cathepsin E kinetic assays were performed at room temperature in 384-well microtiter plates (black with clear flat bottom, non-binding surface plates from Corning) in a final volume of 51 μl. The test compounds were serially diluted in DMSO (15 concentrations, ⅓ dilution steps) and 1 μl of diluted compounds were mixed for 10 min with 40 μl of cathepsin D (from human liver, Calbiochem) diluted in assay buffer (100 mM sodium acetate, 0.05% BSA, pH 5.5; final concentration:200 nM) or with 40 μl of recombinant human cathepsin E (R&D Systems) diluted in assay buffer (100 mM sodium acetate, 0.05% BSA, pH 4.5; final concentration:0.01 nM). After addition of 10 μl of the cathepsin D substrate WTSVLMAAPC-MR121 diluted in cathepsin D assay buffer (final concentration:300 nM) or 10 μl of the cathepsin E substrate MR121-CKLVFFAEDW diluted in cathepsin E assay buffer (final concentration:300 nM), the plates were strongly shaken for 2 minutes. The enzymatic reaction was followed in a plate: vision reader (Perkin Elmer) (excitation wavelength:630 nm; emission:695 nm) for at least 30 minutes in a kinetic measurement detecting an increase of MR121 fluorescence during the reaction time. The slope in the linear range of the kinetic was calculated and the IC50 of the test compounds were determined using a four parameter equation for curve fitting.
# [2] = molecular target: T2, cathepsin D (from human liver) (Homo sapiens, UniProt P07339); assay: Cathepsin D fluorescent substrate kinetic assay; type: biochemical; settings: pH 5.5, substrate WTSVLMAAPC-MR121
# T2 construct: cathepsin D (from human liver, Calbiochem) diluted in assay buffer; purchased Calbiochem; host or cells: human liver
# T2 sequence (P07339 65-162 limits assumed): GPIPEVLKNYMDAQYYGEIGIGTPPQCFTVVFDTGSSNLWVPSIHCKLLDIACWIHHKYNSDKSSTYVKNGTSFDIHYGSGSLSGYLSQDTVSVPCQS
# T2 sequence (P07339 169-412 limits assumed): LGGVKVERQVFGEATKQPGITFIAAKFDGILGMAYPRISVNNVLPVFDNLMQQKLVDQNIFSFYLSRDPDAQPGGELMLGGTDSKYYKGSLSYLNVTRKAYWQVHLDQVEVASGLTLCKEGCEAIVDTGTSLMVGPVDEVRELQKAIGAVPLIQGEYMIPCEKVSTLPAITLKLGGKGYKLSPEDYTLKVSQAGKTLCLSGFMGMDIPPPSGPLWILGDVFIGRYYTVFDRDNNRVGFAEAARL
# Text: as §1, §2, §3
# [3] = molecular target: T3, CYP2C9 (Homo sapiens, UniProt P11712); assay: CYP inhibition assay, human liver microsomes; type: in vitro ADME; settings: human liver microsomes, substrate diclofenac; read-out: CYP IC50 2C9
# T3 construct: 0.2 mg/ml pooled human liver microsomes; from tissue; host or cells: pooled human liver microsomes
# T3 sequence (P11712 whole entry): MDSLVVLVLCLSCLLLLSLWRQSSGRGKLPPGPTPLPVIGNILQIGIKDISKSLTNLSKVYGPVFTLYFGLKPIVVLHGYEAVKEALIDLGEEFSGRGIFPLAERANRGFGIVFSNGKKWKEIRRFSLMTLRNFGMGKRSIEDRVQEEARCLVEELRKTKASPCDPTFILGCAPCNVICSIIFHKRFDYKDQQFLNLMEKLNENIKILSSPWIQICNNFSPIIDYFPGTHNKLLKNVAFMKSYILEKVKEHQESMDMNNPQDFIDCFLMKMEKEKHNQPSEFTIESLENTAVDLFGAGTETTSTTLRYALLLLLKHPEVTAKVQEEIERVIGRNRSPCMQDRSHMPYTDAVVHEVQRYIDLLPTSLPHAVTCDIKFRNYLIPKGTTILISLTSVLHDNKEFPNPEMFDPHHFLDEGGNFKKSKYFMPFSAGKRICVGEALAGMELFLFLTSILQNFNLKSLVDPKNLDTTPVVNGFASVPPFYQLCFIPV
# Method: (§4) Inhibition of cytochromes P450 (CYPs) 2C9, 2D6 and 3A4 was assessed using human liver microsomes and CYP-selective substrate metabolism reactions. 50 μl incubations were made up containing (finally) 0.2 mg/ml pooled human liver microsomes, 5 μM substrate (diclofenac for CYP2C9 [4′hydroxylase], dextromethorphan for CYP2D6 [O-demethylase] or midazolam for CYP3A4 [1′hydroxylase]), 0.25 μL DMSO containing test inhibitor and NADPH regenerating system. Test inhibitor concentrations of 50, 16.7, 5.6, 1.9, 0.6 and 0.2 μM were assessed in singlicate. Incubations were prewarmed to 37° C. for 10 minutes before initiation by addition of NADPH regenerating system. Incubations were quenched after 5 minutes (20 minutes for dextromethorphan) by addition of 50 μl cold acetonitrile containing 20 ng/ml 4-OH-diclofenac-13C6, 20 ng/mL dextrorphan-D3 and 20 ng/mL 1-OH-midazolam-D4. Quenched incubates were stored at −20° C. for at least 1 hour before centrifugation (20,000× g, 20 minutes). Supernatants were removed and diluted 1:1 with water prior to analysis using a RapidFire sample injector system and API4000 mass spectrometer. Peak areas for substrate, metabolite and stable-labelled metabolite standard were determined using MS/MS. The peak area ratios between the metabolite generated by the enzymatic reaction and the internal standard were used in subsequent calculations. The percentage of (DMSO) control activity was calculated for each incubate and IC50 values estimated by non-linear regression. Sulfaphenazole, quinidine or ketoconazole were tested in each CYP2C9, CYP2D6 or CYP3A4 inhibition experiment, respectively, to ensure assay sensitivity and reproducibility. (Validated assays for human cytochrome P450 activities, R. L. Walsky and R. S. Obach, Drug Metabolism and Disposition 32: 647-660, 2004. and S. Fowler and H. Zhang, The AAPS Journal, Vol. 10, No. 2, 410-424, 2008)
# [4] = molecular target: T4, CYP2D6 (Homo sapiens, UniProt P10635); assay: CYP inhibition assay, human liver microsomes; type: in vitro ADME; settings: human liver microsomes, substrate dextromethorphan; read-out: CYP IC50 2D6
# T4 construct: 0.2 mg/ml pooled human liver microsomes; from tissue; host or cells: pooled human liver microsomes
# T4 sequence (P10635 whole entry): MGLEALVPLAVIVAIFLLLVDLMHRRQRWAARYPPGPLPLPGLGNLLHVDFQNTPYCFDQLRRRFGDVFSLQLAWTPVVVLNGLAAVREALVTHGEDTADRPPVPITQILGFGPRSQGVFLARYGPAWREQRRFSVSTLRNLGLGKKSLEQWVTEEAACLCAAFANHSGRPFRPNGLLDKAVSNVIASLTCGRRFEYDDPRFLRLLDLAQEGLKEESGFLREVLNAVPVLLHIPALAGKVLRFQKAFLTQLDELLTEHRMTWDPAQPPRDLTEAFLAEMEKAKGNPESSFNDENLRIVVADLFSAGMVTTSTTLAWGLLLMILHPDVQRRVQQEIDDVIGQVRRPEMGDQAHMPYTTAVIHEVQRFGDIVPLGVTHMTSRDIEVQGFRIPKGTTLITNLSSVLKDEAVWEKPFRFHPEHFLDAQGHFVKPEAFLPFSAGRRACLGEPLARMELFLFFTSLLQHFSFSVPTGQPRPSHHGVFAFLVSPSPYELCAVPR
# Method: as §4
# [5] = molecular target: T5, CYP3A4 (Homo sapiens, UniProt P08684); assay: CYP inhibition assay, human liver microsomes; type: in vitro ADME; settings: human liver microsomes, substrate midazolam; read-out: CYP IC50 3A4
# T5 construct: 0.2 mg/ml pooled human liver microsomes; from tissue; host or cells: pooled human liver microsomes
# T5 sequence (P08684 whole entry): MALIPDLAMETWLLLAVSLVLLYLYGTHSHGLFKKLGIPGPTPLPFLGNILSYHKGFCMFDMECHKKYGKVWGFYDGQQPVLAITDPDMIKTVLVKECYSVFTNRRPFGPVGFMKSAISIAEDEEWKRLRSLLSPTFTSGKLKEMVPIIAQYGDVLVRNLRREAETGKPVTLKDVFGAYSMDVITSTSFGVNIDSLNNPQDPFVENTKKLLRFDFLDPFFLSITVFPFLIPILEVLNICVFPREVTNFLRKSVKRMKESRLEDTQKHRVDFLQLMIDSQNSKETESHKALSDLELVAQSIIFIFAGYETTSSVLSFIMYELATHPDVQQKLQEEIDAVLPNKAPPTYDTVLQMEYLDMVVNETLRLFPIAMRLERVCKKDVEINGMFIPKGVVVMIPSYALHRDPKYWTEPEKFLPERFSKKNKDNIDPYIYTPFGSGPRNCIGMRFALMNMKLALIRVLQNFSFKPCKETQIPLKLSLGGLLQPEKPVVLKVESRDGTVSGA
# Method: as §4
# [6] = GSH human, in vitro adduct formation; type: in vitro ADME; set-up: key: NF = in vitro no significant adduct formation relative to control; settings: in vitro adduct formation relative to control
IC50 [1] [µM],IC50 [2] [µM],IC50 [3] [µM],IC50 [4] [µM],IC50 [5] [µM],GSH human [6],Structure (SMILES)
167,39,> 10,> 10,> 10,,"[2H]C([2H])([2H])N=[S@@]1(=O)C[C@@](C)(c2cc(-c3cc(-c4cnc(OC)cn4)no3)ccc2F)N=C(N)C1(C)C [Example 24, (1R,3R)-3-[2-fluoro-5-[3-(5-methoxypyrazin-2-yl)isoxazol-5-yl]phenyl]-3,6,6-rimethyl-1-oxo-1-(trideuteriomethylimino)-2H-1,4-thiazin-5-amine 2,2,2-trifluoroacetate]"
79,38,> 10,> 10,> 10,NF,"CN=[S@@]1(=O)C[C@@](C)(c2cc(-c3cc(-c4ncc(Cl)cn4)no3)ccc2F)N=C(N)C1(C)C [Example 6, (1R,3R)-5-amino-3-(5-(3-(5-chloropyrimidin-2-yl)isoxazol-5-yl)-2-fluorophenyl)-3,6,6-trimethyl-1-(methylimino)-3,6-dihydro-2H-1,4-thiazine 1-oxide 2,2,2-trifluoroacetate]"
78,29,> 10,,> 10,NF,"CN=[S@@]1(=O)C[C@@](C)(c2cc(-c3cc(-c4cnc(OCC(F)F)cn4)no3)ccc2F)N=C(N)C1(C)C [Example 5, (1R,3R)-5-amino-3-(5-(3-(5-(2,2-difluoroethoxy)pyrazin-2-yl)isoxazol-5-yl)-2-fluorophenyl)-3,6,6-trimethyl-1-(methylimino)-3,6-dihydro-2H-1,4-thiazine 1-oxide 2,2,2-trifluoroacetate]"
182,37,> 10,> 10,> 10,NF,"CN=[S@@]1(=O)C[C@@](C)(c2cc(-c3cc(-c4cnc(OC)cn4)no3)ccc2F)N=C(N)C1(C)C [Example 7, (1R,3R)-5-amino-3-(2-fluoro-5-(3-(5-methoxypyrazin-2-yl)isoxazol-5-yl)phenyl)-3,6,6-trimethyl-1-(methylimino)-3,6-dihydro-2H-1,4-thiazine 1-oxide 2,2,2-trifluoroacetate]"
